Assays:
SARM1 = molecular target: T1, SARM1 (Homo sapiens, UniProt Q6SZW1); assay: In vitro biochemical assay for inhibiting SARM1 enzyme activity (PC6 fluorescence, NADase); conditions: full-length SARM1 from transfected HEK293 cells; 50 µM NAD, 50 µM PC6, 50 µM NMN activator; room temperature, 30 minutes; read-out: IC50
T1 construct: inventors produced full-length SARM1 for NAD enzyme activity experiments, and used it for screening; His (C); made in house; host or cells: HEK293 cells, transient transfection; supernatant of digitonin lysate, no further purification described
T1 sequence (Q6SZW1 28-724): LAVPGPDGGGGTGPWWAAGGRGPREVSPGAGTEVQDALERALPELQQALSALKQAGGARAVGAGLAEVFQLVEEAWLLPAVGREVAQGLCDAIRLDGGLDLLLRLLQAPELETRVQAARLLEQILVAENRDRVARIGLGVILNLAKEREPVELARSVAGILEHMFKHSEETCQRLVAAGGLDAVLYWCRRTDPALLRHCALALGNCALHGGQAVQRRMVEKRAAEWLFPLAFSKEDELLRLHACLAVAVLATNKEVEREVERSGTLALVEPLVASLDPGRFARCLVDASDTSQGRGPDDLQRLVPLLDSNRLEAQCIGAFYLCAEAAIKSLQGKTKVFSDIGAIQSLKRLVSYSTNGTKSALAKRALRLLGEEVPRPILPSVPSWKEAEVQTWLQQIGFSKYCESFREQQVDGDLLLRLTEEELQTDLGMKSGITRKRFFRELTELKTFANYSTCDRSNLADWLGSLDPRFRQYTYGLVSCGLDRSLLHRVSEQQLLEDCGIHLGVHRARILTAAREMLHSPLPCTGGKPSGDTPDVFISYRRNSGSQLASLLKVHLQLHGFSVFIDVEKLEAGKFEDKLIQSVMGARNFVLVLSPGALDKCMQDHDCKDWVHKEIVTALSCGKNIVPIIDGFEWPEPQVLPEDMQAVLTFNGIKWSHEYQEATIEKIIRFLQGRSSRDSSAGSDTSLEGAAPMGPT
Experimental: The gene sequence of SARM1 protein was amplified using PCR, and the PCR amplification product was constructed into pcDNA3.1-HIS-C plasmid. The above construction was completed by YouBio(Hunan, China). HEK293 cells were cultured in 10 cm dishes using DMEM, and the cells were transfected with 15 μg pcDNA3.1-SARM[…]-C expression plasmid on the following day. Cells were collected 48 hours after transfection, and SARM1 protein expressed in the cells was obtained by digitonin lysis for in vitro activity assay experiments. The specific procedure was as follows: Cells were digested with trypsin-EDTA, then centrifuged at 1000 rpm for 5 minutes, washed once with PBS, and then resuspended in PBS containing 100 μM digitonin, with 0.6 mL PBS for the cells in per 10 cm dish, and lysed for 5 minutes. […] Then the supernatant containing SARM1 protein was collected by centrifugation at 5000 rpm for 10 minutes. […] A group without inhibitor was used as control group. All mixtures were incubated at room temperature for 10 minutes. Then, 50 μM NAD and 50 μM PC6 as substrates and 50 μM NMN as an activator were added to the SARM1 protein incubated with the inhibitor, and the reaction was carried out at room temperature for 30 minutes. The concentrations of each component were the final concentrations in the reaction system. […] Finally, the reaction rate was used to represent the protein activity and calculate the half-maximal inhibitory concentration.

[1] = tested on: dorsal root ganglion explants; assay: Axonal Wallerian degeneration assay in mouse DRG explant culture; assay type: cell-based, C57BL/6 male mice; conditions: 10 µM test compound, 2 hours pretreatment, axons transected, images at 0 hour and 24 hours
Text: The experimental method was based on Gerdts J et al. (Gerdts J, Sasaki Y, Vohra B, Marasa J, Milbrandt J. Image-based screening identifies novel roles for IkappaB kinase and glycogen synthase kinase 3 in axonal degeneration. J Biol Chem. 2011 Aug 12;286(32):28011-8).
Dorsal root ganglia were dissected from 2-month-old C57BL/6 male mice and placed in 35 mm culture dishes containing pre-cooled HBSS buffer. Excess tissue from each dorsal root ganglion was removed and cut into 2-3 explants using a scalpel, and the explants were planted in wells of a 96-well plate coated with 100 ng/mL Matrigel (Corning). 100 µL of DRG culture medium (Neurobasal medium (Gibco) containing 2% B-27 (Gibco), 1% GlutaMax (Gibco), and 10 ng/mL NGF (MCE)) was added, then cultured in a 37°C incubator for one week, with medium change on day 4, and experiments were performed on day 8.
0.1 µL of 10 mM test compound was dissolved in 100 µL DRG culture medium to prepare new culture medium containing 10 µM test compound. The culture medium in the 96-well plate was aspirated and new culture medium containing the test compound was added. Then the dorsal root ganglion explants were incubated with the medium in a 37°C incubator for 2 hours for pre-protection. After 2-hour pretreatment, a glass electrode was used to transect axons in the area near the tissue block, and bright-field images of axons in the same area were captured at 0 hour and 24 hours post axonal degeneration using a 20x objective lens of a microscope (Olympus). Axonal integrity was evaluated using an in-house developed script.

| IC50 (SARM1) [nM] | Structure (SMILES) | Degree of Protection Against Axonal Wallerian Degeneration [1] |
| --- | --- | --- |
| < 100 | O=C1C(Cc2ccc(Cl)cc2)CCN1c1ccc2c(c1)COc1cnccc1-2 (stereo not drawn) [Compound 1, 3-(4-chlorobenzyl)-1-(6H-isochromeno[3,4-c]pyridin-8-yl)pyrrolidin-2-one] | A (substantial protection (A) >50%) |
| 100 to 1000 | O=C1C(Cc2ccccc2)CCN1c1ccc2c(c1)COc1cnccc1-2 (stereo not drawn) [Compound 2, 3-benzyl-1-(6H-isochromeno[3,4-c]pyridin-8-yl)pyrrolidin-2-one] | A (substantial protection (A) >50%) |
| 1000 to 10000 | O=C1C(Cc2ccc(Cl)cc2F)CCN1c1ccc2c(c1)COc1cnccc1-2 (stereo not drawn) [Compound 3] |  |
| 100 to 1000 | O=C1C(Cc2cc(F)cc(F)c2)CCN1c1ccc2c(c1)COc1cnccc1-2 (stereo not drawn) [Compound 4] | A (substantial protection (A) >50%) |
| 1000 to 10000 | O=C1C(Cc2cc(F)c(F)c(F)c2)CCN1c1ccc2c(c1)COc1cnccc1-2 (stereo not drawn) [Compound 5] | A (substantial protection (A) >50%) |
| 1000 to 10000 | O=C1C(Cc2ccc(Cl)s2)CCN1c1ccc2c(c1)COc1cnccc1-2 (stereo not drawn) [Compound 7] | A (substantial protection (A) >50%) |
| 1000 to 10000 | Cc1ccc(CC2CCN(c3ccc4c(c3)COc3cnccc3-4)C2=O)cc1 (stereo not drawn) [Compound 8] |  |
| 1000 to 10000 | O=C1C(Cc2cccc(Cl)c2)CCN1c1ccc2c(c1)COc1cnccc1-2 (stereo not drawn) [Compound 9] | A (substantial protection (A) >50%) |
| < 100 | O=C1C(Cc2ccc(F)cc2)CCN1c1ccc2c(c1)COc1cnccc1-2 (stereo not drawn) [Compound 10, 3-(4-fluorobenzyl)-1-(6H-isochromeno[3,4-c]pyridin-8-yl)pyrrolidin-2-one] | A (substantial protection (A) >50%) |
| 1000 to 10000 | O=C1C(Cc2ccc(F)cc2F)CCN1c1ccc2c(c1)COc1cnccc1-2 (stereo not drawn) [Compound 11] | A (substantial protection (A) >50%) |
| 100 to 1000 | O=C1C(Cc2ccc(Cl)o2)CCN1c1ccc2c(c1)COc1cnccc1-2 (stereo not drawn) [Compound 12] | B (partial protection (B): 20% to 50%) |
| 1000 to 10000 | O=C1C(Cc2ccc(C(F)(F)F)cc2)CCN1c1ccc2c(c1)COc1cnccc1-2 (stereo not drawn) [Compound 14] |  |
| 1000 to 10000 | N#Cc1ccc(CC2CCN(c3ccc4c(c3)COc3cnccc3-4)C2=O)cc1 (stereo not drawn) [Compound 16] | A (substantial protection (A) >50%) |
| 100 to 1000 | O=C1C(Cc2ccc(Cl)nc2)CCN1c1ccc2c(c1)COc1cnccc1-2 (stereo not drawn) [Compound 17] | B (partial protection (B): 20% to 50%) |
| 1000 to 10000 | O=C1C(Cc2cc(F)c(Cl)c(F)c2)CCN1c1ccc2c(c1)COc1cnccc1-2 (stereo not drawn) [Compound 18] | B (partial protection (B): 20% to 50%) |
| < 100 | O=C(CCc1ccc2c(c1)OCO2)Nc1ccc2c(c1)COc1cnccc1-2 [Compound 20] |  |
| 1000 to 10000 | O=C(CCc1ccc([N+](=O)[O-])cc1)Nc1ccc2c(c1)COc1cnccc1-2 [Compound 23] |  |
| 100 to 1000 | O=C(CCc1ccc(OC(F)(F)F)cc1)Nc1ccc2c(c1)COc1cnccc1-2 [Compound 24] |  |
| < 100 | O=C(CCc1ccc(Cl)nc1)Nc1ccc2c(c1)COc1cnccc1-2 [Compound 26] |  |
| < 100 | O=C(CCc1cccc(Cl)c1)Nc1ccc2c(c1)COc1cnccc1-2 [Compound 31] |  |
| 100 to 1000 | O=C(Nc1ccc2c(c1)COc1cnccc1-2)C(F)Cc1ccc(Cl)cc1 (stereo not drawn) [Compound 35] |  |
| < 100 | O=C(CCc1ccccc1)Nc1ccc2c(c1)COc1cnccc1-2 [Compound 38] |  |
| < 100 | O=C(CCc1cc(F)c(Cl)c(F)c1)Nc1ccc2c(c1)COc1cnccc1-2 [Compound 43] |  |

| IC50 (SARM1) [nM] | Structure (SMILES) | Degree of Protection Against Axonal Wallerian Degeneration [1] |
| --- | --- | --- |
| < 100 | N#Cc1c(F)cc(CCC(=O)Nc2ccc3c(c2)COc2cnccc2-3)cc1F [Compound 44] |  |
| 100 to 1000 | O=C(NCc1cc(F)cc(F)c1)Nc1ccc2c(c1)COc1cnccc1-2 [Compound 48] |  |
| 1000 to 10000 | CN(C(=O)CCc1ccc(F)cc1)c1ccc2c(c1)COc1cnccc1-2 [Compound 49, 3-(4-fluorophenyl)-N-(6H-isochromeno[3,4-c]pyridin-8-yl)-N-methylpropanamide] |  |
| 1000 to 10000 | O=C(Cc1ccc(F)cc1)Nc1ccc2c(c1)COc1cnccc1-2 [Compound 51] |  |
| 100 to 1000 | NC(Cc1ccc(F)cc1)C(=O)Nc1ccc2c(c1)COc1cnccc1-2 (stereo not drawn) [Compound 52, 2-amino-3-(4-fluorophenyl)-N-(6H-isochromeno[3,4-c]pyridin-8-yl)propanamide] |  |
| 1000 to 10000 | O=C1C(Cc2ccc(F)cc2)CCN1c1ccc2c(c1)COCc1cnccc1-2 (stereo not drawn) [Compound 53, 1-(5,7-dihydrobenzo[5,6]oxepino[3,4-c]pyridin-9-yl)-3-(4-fluorobenzyl)pyrrolidin-2-one] |  |
| 100 to 1000 | O=C1C(Cc2ccc3ocnc3c2)CCN1c1ccc2c(c1)COc1cnccc1-2 (stereo not drawn) [Compound 61] |  |
| 1000 to 10000 | O=C(NCc1ccc2c(c1)OCO2)Nc1ccc2c(c1)COc1cnccc1-2 [Compound 64] |  |
| 100 to 1000 | O=C(NCc1ccc(Cl)nc1)Nc1ccc2c(c1)COc1cnccc1-2 [Compound 66] |  |
| 1000 to 10000 | O=C(NCc1cccc(Cl)c1)Nc1ccc2c(c1)COc1cnccc1-2 [Compound 69] |  |
| 1000 to 10000 | CN(C)c1ccc(CCC(=O)Nc2ccc3c(c2)COc2cnccc2-3)cc1 [Compound 79] |  |
| 1000 to 10000 | O=C(CCc1ccc2ccccc2c1)Nc1ccc2c(c1)COc1cnccc1-2 [Compound 81] |  |
| 1000 to 10000 | O=C(CCc1cccc2ccccc12)Nc1ccc2c(c1)COc1cnccc1-2 [Compound 82] |  |
| 100 to 1000 | O=C(CCc1ccc2c(c1)CCO2)Nc1ccc2c(c1)COc1cnccc1-2 [Compound 83] |  |
| 1000 to 10000 | Cc1c(NC(=O)CCc2ccc(F)cc2)ccc2c1COc1cnccc1-2 [Compound 131, 3-(4-fluorophenyl)-N-(7-methyl-6H-isochromeno[3,4-c]pyridin-8-yl)propanamide] |  |
| 1000 to 10000 | CC(C)c1cncc2c1-c1ccc(NC(=O)CCc3ccc(F)cc3)cc1CO2 [Compound 141] |  |
| < 100 | C#Cc1ccc(CCC(=O)Nc2ccc3c(c2)COc2cnccc2-3)cc1 [Compound 148] |  |
| 1000 to 10000 | C=Cc1ccc(CC2CCN(c3ccc4c(c3)COc3cnccc3-4)C2=O)cc1 (stereo not drawn) [Compound 149] |  |
| < 100 | O=C1N(Cc2ccc(F)cc2)CCN1c1ccc2c(c1)COc1cnccc1-2 [Compound 150] |  |
| < 100 | CN(Cc1ccc(F)cc1)C(=O)Nc1cnc2c(c1)COc1cnccc1-2 [Compound 153] |  |
| < 100 | O=C1[C@H](Cc2ccc(F)cc2)CCN1c1ccc2c(c1)COc1cnccc1-2 [Compound 154] |  |
| < 100 | O=C1[C@@H](Cc2ccc(F)cc2)CCN1c1ccc2c(c1)COc1cnccc1-2 [Compound 155] |  |

Source: patent publication EP4782449A1, “TRICYCLIC PYRIDINE COMPOUND ACTING AS SARM1 ENZYME ACTIVITY INHIBITOR, AND USE THEREOF” (Artivila (ShenZhen) Innovation Center, Ltd., priority 2023, dated 2025)
